Here are results for 31 molecules from patent US20240150377A1, “MODULATORS OF CYSTIC FIBROSIS TRANSMEMBRANE CONDUCTANCE REGULATOR” (VERTEX PHARMACEUTICALS INCORPORATED, priority 2020, published 2024).

Molecules are shown by their SMILES. Like-named read-outs stand apart in the source and are kept apart here. Where only a bound is given, the exact number is not on record here.

The assay has as its target T1, CFTR (Homo sapiens, UniProt P13569, DEL508-508).
T1 construct: endogenous in cells; host or cells: primary human bronchial epithelial cells from CF subjects (F508del/MF-HBE), differentiated at air-liquid interface
Description: HBE assay: Ussing chamber assay of CFTR-mediated short-circuit currents. Particulars: for EC50: read-out: HBE EC50. The class given is cell-based. The procedure, abridged: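 CFTR-mediated Isc (μA/cm²) equals the peak response to apical 20 μM forskolin minus the residual after a 20 μM each BPO/GlyH-101/CFTR inhibitor 172 cocktail, recorded in Ussing chambers at Vhold 0 mV, 37 °C, pH 7.4, with 30 μM apical amiloride. Cells were F508del/MF HBE cultures preincubated 18-24 h with corrector (concentration range or 10 μM) plus 1 μM ivacaftor in 20% human serum.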

[1] abbreviates: HBE assay, read-out: HBE Max activity (%).
[2] abbreviates: Table 10, read-out: HBE Max activity (%).
Where [3] appears, read: Table 12, read-out: HBE Max Activity (%).
The mark [4] stands for this setting: HBE assay, 10 μM, read-out: HBE Activity at 10 μM (%).
The mark [5] stands for this setting: Table 13, at 10 μM, read-out: HBE Activity at 10 μM (%).
[6] abbreviates: Table 12, at 10 μM, read-out: HBE Activity at 10 μM (%).
Where [7] appears, read: Table 11, read-out: HBE Max Activity (%).
[8] abbreviates: Table 10, at 10 μM, read-out: HBE activity at 10 (μM) (%).

T1 sequence (P13569 with tags, fused parts or gaps DEL508-508): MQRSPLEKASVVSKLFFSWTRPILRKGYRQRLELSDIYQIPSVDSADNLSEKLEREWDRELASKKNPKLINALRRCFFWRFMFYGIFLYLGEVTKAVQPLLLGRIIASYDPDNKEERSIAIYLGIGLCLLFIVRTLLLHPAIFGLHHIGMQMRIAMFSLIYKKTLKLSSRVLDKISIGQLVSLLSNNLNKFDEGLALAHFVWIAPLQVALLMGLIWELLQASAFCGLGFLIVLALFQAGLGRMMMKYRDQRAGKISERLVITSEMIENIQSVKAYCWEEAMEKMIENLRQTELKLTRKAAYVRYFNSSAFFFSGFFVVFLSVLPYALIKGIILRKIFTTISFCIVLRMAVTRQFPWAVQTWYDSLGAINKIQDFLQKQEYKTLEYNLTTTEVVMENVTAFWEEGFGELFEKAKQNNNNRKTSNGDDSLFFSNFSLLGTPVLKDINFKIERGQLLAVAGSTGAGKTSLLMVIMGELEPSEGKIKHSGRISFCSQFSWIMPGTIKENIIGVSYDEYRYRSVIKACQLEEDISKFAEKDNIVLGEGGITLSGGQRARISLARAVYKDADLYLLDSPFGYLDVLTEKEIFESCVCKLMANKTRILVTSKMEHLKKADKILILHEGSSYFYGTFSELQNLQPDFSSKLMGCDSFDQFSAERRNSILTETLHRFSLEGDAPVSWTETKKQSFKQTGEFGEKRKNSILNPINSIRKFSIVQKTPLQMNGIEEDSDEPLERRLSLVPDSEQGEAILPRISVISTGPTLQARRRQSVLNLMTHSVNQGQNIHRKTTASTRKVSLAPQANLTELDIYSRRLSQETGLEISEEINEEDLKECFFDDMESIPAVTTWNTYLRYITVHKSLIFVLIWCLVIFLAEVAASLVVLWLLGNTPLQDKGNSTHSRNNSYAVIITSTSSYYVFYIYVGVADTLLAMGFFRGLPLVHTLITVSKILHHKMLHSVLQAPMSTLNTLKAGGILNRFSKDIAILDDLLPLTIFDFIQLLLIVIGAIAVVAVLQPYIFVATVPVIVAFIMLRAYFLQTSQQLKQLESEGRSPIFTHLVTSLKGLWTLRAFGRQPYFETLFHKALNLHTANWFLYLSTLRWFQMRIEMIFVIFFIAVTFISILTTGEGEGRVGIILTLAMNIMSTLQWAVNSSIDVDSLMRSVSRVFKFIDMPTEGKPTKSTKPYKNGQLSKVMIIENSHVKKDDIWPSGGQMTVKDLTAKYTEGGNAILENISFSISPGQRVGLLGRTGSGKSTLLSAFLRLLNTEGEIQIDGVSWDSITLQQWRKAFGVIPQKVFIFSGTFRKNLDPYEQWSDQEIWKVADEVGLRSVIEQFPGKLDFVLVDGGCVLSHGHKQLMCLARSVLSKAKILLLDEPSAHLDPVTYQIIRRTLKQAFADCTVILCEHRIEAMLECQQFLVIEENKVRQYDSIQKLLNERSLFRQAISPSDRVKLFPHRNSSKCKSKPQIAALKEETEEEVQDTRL

For the molecule `COCCN(CC(C)C)c1cncc(CN2C(=O)c3cccc(c3)S(=O)(=O)Nc3nc(cc(-c4c(C)cccc4C)n3)OC[C@H]2CC(C)(C)C)n1` [Compound 1418], the concentration for a half-maximal effect (EC50) (HBE assay) was less than 1 µM. Further, the Emax under setting [1] was greater than 60%. Take `Cc1cccc(C)c1-c1cc2nc(n1)NS(=O)(=O)c1cccc(c1)C(=O)N(CC1CCC(N3C[C@@H](C)O[C@@H](C)C3)CC1)[C@H](CC(C)(C)C)CO2` (some centres unmarked) [Compound 913]: the EC50 (Table 10) was less than 1 µM. The Emax under setting [2] is greater than 60%. For the molecule `Cc1cccc(C)c1-c1cc2nc(n1)NS(=O)(=O)c1cccc(c1)C(=O)N(Cc1ncc(N3CC4(CCC4)C3)cn1)[C@H](CC(C)(C)C)CO2` [Compound 155, (11R)-12-[[5-(2-Azaspiro[3.3]heptan-2-yl)pyrimidin-2-yl]methyl]-6-(2,6-dimethylphenyl)-11-(2,2-dimethylpropyl)-2,2-dioxo-9-oxa-2λ^6-thia-3,5,12,19-tetrazatricyclo[12.3.1.14,8]nonadeca-1(18),4(19),5,7,14,16-hexaen-13-one], the EC50 (Table 12) was less than 1 µM. The Emax under setting [3] is greater than 60%.

Consider `Cc1cccc(C)c1-c1cc2nc(n1)NS(=O)(=O)c1cccc(c1)C(=O)N(Cc1ccc(C(C)(C)C)cn1)[C@H](CC(C)(C)C)CO2` [Compound 496], for which, where the note is “Table 10”, the EC50 was less than 1 µM. For the same molecule, the Emax under setting [2] was greater than 60%. Take `COCCN(CC(C)(C)C)c1cncc(CN2C(=O)c3cccc(c3)S(=O)(=O)Nc3nc(cc(-c4c(C)cccc4C)n3)OC[C@H]2CC(C)(C)C)n1` [Compound 1367]: for the setting “HBE assay”, the EC50 is less than 1 µM. Further, the Emax under setting [1] was greater than 60%. For `Cc1cccc(C)c1-c1cc2nc(n1)NS(=O)(=O)c1cccc(c1)C(=O)N(Cc1ncc(OCC3CC3)cn1)[C@H](CC(C)(C)C)CO2` [Compound 1390] the same measures were less than 1 µM and greater than 60%. Regarding `Cc1ccc(N(C)C2CC3(CC3)C2)nc1CN1C(=O)c2cccc(c2)S(=O)(=O)Nc2nc(cc(-c3c(C)cccc3C)n2)OC[C@H]1CC(C)(C)C` [Compound 1140], where the note is “Table 13”, the EC50 is less than 1 µM. For the setting “Table 13, read-out: HBE Max Activity (%)”, the Emax is greater than 60%. Turning to `Cc1cccc(C)c1-c1cc2nc(n1)NS(=O)(=O)c1cccc(c1)C(=O)N(Cc1cccc(N3CCOC(C)(C)C3)n1)[C@H](CC(C)(C)C)CO2` [Compound 872], the EC50 (Table 12) was less than 1 µM. Further, the Emax under setting [3] is greater than 60%.

Regarding `Cc1cccc(C)c1-c1cc2nc(n1)NS(=O)(=O)c1cccc(c1)C(=O)N(Cc1cccc(NC3CCOCC3)n1)[C@H](CC(C)(C)C)CO2` [Compound 1419], the half-maximal effective concentration (EC50) (HBE assay) was less than 1 µM. In addition, the Emax under setting [1] was greater than 60%. Take `Cc1cccc(C)c1-c1cc2nc(n1)NS(=O)(=O)c1cccc(c1)C(=O)N(Cc1cncc(N(C)CCOC(C)C)n1)[C@H](CC(C)(C)C)CO2` [Compound 262]: where the note is “Table 12”, the EC50 was less than 1 µM. The Emax under setting [3] was greater than 60%.

As for `COC[C@@]1(C)CCCN1c1cccc(CN2C(=O)c3cccc(c3)S(=O)(=O)Nc3nc(cc(-c4c(C)cccc4C)n3)OC[C@H]2CC(C)(C)C)n1` [Compound 1510], under setting [4], the activation at 10 µM was greater than 60%. For the molecule `Cc1cccc(C)c1-c1cc2nc(n1)NS(=O)(=O)c1cccc(c1)C(=O)N(CC(=O)N(C)CC1CCCCO1)[C@H](CC(C)(C)C)CO2` (some centres unmarked) [Compound 225], under setting [5], the activation at 10 µM is greater than 600%.

`Cc1cccc(C)c1-c1cc2nc(n1)NS(=O)(=O)c1cccc(c1)C(=O)N(CC(=O)N1CCC3(CCCC3)CC1)[C@H](CC(C)(C)C)CO2` [Compound 183]: under setting [5], the activation at 10 µM was greater than 600%. On to `Cc1cccc(C)c1-c1cc2nc(n1)NS(=O)(=O)c1cccc(c1)C(=O)N(Cc1nccnc1C)[C@H](CC(C)(C)C)CO2` [Compound 698], for which, under setting [6], the activation at 10 µM was greater than 600%.

For the molecule `COc1cc(Br)cnc1CN1C(=O)c2cccc(c2)S(=O)(=O)Nc2nc(cc(-c3c(C)cccc3C)n2)OC[C@H]1CC(C)(C)C` [Compound 244], under setting [5], the activation at 10 µM was greater than 600%.

Regarding `Cc1cccc(C)c1-c1cc2nc(n1)NS(=O)(=O)c1cccc(c1)C(=O)N(Cc1cccc(N3CCC[C@H]3C)n1)[C@H](CC1CC1)CO2` [Compound 463], under “Table 12”, the EC50 was less than 1 µM. In addition, under setting [3], the Emax is greater than 60%.

As for `Cc1cccc(C)c1-c1cc2nc(n1)NS(=O)(=O)c1cccc(c1)C(=O)N(Cc1cccc(N3CCC[C@@H]3C#N)n1)[C@H](CC(C)(C)C)CO2` [Compound 533], the activation at 10 µM under setting [5] was greater than 600%. In the case of `Cc1cnc(CN2C(=O)c3cccc(c3)S(=O)(=O)Nc3nc(cc(-c4c(C)cccc4C)n3)OC[C@H]2CC(C)(C)C)nc1N(C)CC(C)(C)C` [Compound 328], the EC50 (Table 12) is less than 1 µM. In addition, the Emax under setting [3] was greater than 60%. On to `Cc1cccc(C)c1-c1cc2nc(n1)NS(=O)(=O)c1cccc(c1)C(=O)N(Cc1cccc(C(C)(C)C)n1)[C@H](CC(C)(C)C)CO2` [Compound 731], for which the EC50 (Table 11) is less than 1 µM. The Emax under setting [7] is greater than 60%. For the molecule `Cc1cccc(C)c1-c1cc2nc(n1)NS(=O)(=O)c1cccc(c1)C(=O)N(CC(=O)N1CCCC3(CCC3)C1)[C@H](CC(C)(C)C)CO2` [Compound 169], under setting [5], the activation at 10 µM is greater than 600%.

Consider `COCCN(c1cccc(CN2C(=O)c3cccc(c3)S(=O)(=O)Nc3nc(cc(-c4c(C)cccc4C)n3)OC[C@H]2CC(C)(C)C)n1)C1CC2(CC2)C1` [Compound 1393], for which the concentration for a half-maximal effect (EC50) (HBE assay) was less than 1 µM. Further, the Emax under setting [1] is greater than 60%. In the case of `Cc1cccc(C)c1C1CC2NC(N1)NS(=O)(=O)C1CCCC(C1)C(=O)N(Cc1cccc(-c3c[nH]nc3C(C)(C)C)c1)[C@H](CC(C)(C)C)CO2` (some centres unmarked) [Compound 309], under setting [2], the Emax was greater than 60%.

Take `Cc1cnc(CN2C(=O)c3cccc(c3)S(=O)(=O)Nc3nc(cc(-c4c(C)cccc4C)n3)OC[C@H]2CC(C)(C)C)nc1N(C)C1CCCC1` [Compound 329]: under setting [6], the activation at 10 µM was greater than 600%.

On to `Cc1cccc(C)c1-c1cc2nc(n1)NS(=O)(=O)c1cccc(c1)C(=O)N(CC(=O)NCC1CCCC1)[C@H](CC(C)(C)C)CO2` [Compound 228], for which the activation at 10 µM under setting [6] lay in the range of 30 to 60%.

As to `Cc1cccc(C)c1-c1cc2nc(n1)NS(=O)(=O)c1cccc(c1)C(=O)N(Cc1cccc(C3CCOCC3)n1)[C@H](CC(C)(C)C)CO2` [Compound 728], the EC50 (Table 11) is less than 1 µM. In addition, the Emax under setting [7] is greater than 60%. Take `Cc1cccc(C)c1-c1cc2nc(n1)NS(=O)(=O)c1cccc(c1)C(=O)N(Cc1ncc(O[C@H](C)C(C)C)cn1)[C@H](CC(C)(C)C)CO2` [Compound 1377]: for the setting “HBE assay”, the EC50 was less than 1 µM. Moreover, the Emax under setting [1] is greater than 60%. Consider `Cc1cccc(C)c1-c1cc2nc(n1)NS(=O)(=O)c1cccc(c1)C(=O)N(CC1CCCCC1)[C@H](CC(C)(C)C)CO2` [Compound 832], for which, under setting [8], the activation at 10 µM is greater than 60%. `CC(C)=C(C)c1ccnc(CN2C(=O)c3cccc(c3)S(=O)(=O)Nc3nc(cc(-c4c(C)cccc4C)n3)OC[C@H]2CC(C)(C)C)n1` [Compound 555]: the activation at 10 µM under setting [6] is greater than 600%. For the molecule `Cc1cccc(C)c1-c1cc2nc(n1)NS(=O)(=O)c1cccc(c1)C(=O)N(Cc1nccc(C(C)C(C)C)n1)[C@H](CC(C)(C)C)CO2` (some centres unmarked) [Compound 538], the activation at 10 µM under setting [5] is greater than 600%. With `CC[C@@]1(CO)CCCN1c1cccc(CN2C(=O)c3cccc(c3)S(=O)(=O)Nc3nc(cc(-c4c(C)cccc4C)n3)OC[C@H]2CC(C)(C)C)n1` (stereo in doubt) [Compound 1459], the activation at 10 µM under setting [4] is greater than 60%.

With `Cc1cccc(C)c1-c1cc2nc(n1)NS(=O)(=O)c1cccc(c1)C1Oc3cnc4ccccc4c3CN1[C@H](CC(C)(C)C)CO2` (some centres unmarked) [Compound 752], under setting [8], the activation at 10 µM was less than 300%.

The term EC50 denotes the concentration giving half of the maximal effect.
